{"source": "patent US20110038931A1", "about": "“COMPOSITE PREPARATION” (HANALL BIOPHARMA CO., LTD., priority 2008, published 2011)", "key": {"[1]": {"test_system": "ADP-induced platelet aggregation", "experiment": "Measurement of ADP-induced platelet aggregation in SD rats (PRP, aggregometer)", "type": "in vivo, Rats (male)", "settings": "single drug 10 mg/kg, light", "method": "(§1) Animal tests supporting the effects of the present invention were carried out as described in Table 8 below."}, "SD rats": {"test_system": "SD rats", "experiment": "Bleeding time measurement in SD rats", "type": "in vivo, Rats (male)", "settings": "10 mg/kg p.o. once, light, 2 hours after administration", "method": "as §1"}}, "data": [{"compound": "CC(=O)Oc1ccccc1C(=O)O", "note": "[Aspirin, acetylsalicylic acid]", "values": [{"measurement": "Platelet aggregation", "setting": "[1]", "value": "83.5 ± 16.7", "unit": "%"}, {"measurement": "Bleeding time", "setting": "SD rats", "value": "930 ± 296", "unit": "s"}]}, {"compound": "COC(=O)[C@H](c1ccccc1Cl)N1CCc2sccc2C1", "note": "[Clopidogrel, methyl (+)-(S)-α-(o-chlorophenyl)-6,7-dihydrothieno[3,2-c]pyridine-5(4H)-acetate]", "values": [{"measurement": "Platelet aggregation", "setting": "[1]", "value": "77.1 ± 20.9", "unit": "%"}, {"measurement": "Bleeding time", "setting": "SD rats", "value": "1177 ± 729", "unit": "s"}]}]}
